From patent US20240101541A1 (priority 2020, published 2024)

Assays:
SARS-CoV-2 = assay: microbe, parasite or virus in culture; assay type: cell-based; conditions: Severe acute respiratory syndrome coronavirus 2, read-out: Antiviral EC50
SARS-CoV-2 3CLpro = SARS-CoV-2 3CLpro (Severe acute respiratory syndrome coronavirus 2, UniProt P0DTD1); assay: biochemical

Row | Compound | EC50 (SARS-CoV-2) | IC50 (SARS-CoV-2 3CLpro)
1 | O=C(Cn1nnc2ccccc21)N(Cc1ccsc1)c1ccc(-c2ccccc2)cc1 | 50 to 100 µM | 
2 | O=C(Cn1ccc2ccccc21)N(Cc1ccsc1)c1ccc(-c2ccccc2)cc1 | > 100 µM | > 100 µM
3 | O=C(Cn1nnc2ccccc21)N(Cc1ccc(-c2ccccc2)cc1)Cc1ccsc1 | 5 to 50 µM | > 100 µM
4 | O=C(Cn1nnc2ccccc21)N(Cc1ccc(-c2ccccn2)cc1)Cc1ccsc1 | > 100 µM | 50 to 100 µM
